Data: patent US20220062243A1, “P14-Kinase Inhibitors with Anti-Cancer Activity” (The Board of Trustees of the Leland Stanford Junior …, priority 2019, published 2022)

Biological target: PI4K-IIIβ (Homo sapiens, UniProt Q9UBF8)
Test: PI-kinase assay (membrane capture assay for lipid kinase activity), PI4KIIIβ
Assay type: biochemical
Details: read-out: PI4KIIIβ kinase activity (IC50 class)
Description: PI4-kinase inhibition can be determined by a kinase activity assay, e.g., by an assay that determines the level of incorporation of radiolabeled phosphate from [γ-^32P]-ATP into a substrate molecule after treatment with a subject compound, relative to a control, by measuring the beta-particle emission rate using a scintillation counter or phosphorimaging.
PI-kinase assay: Compounds are tested in C.1.1. PI kinase assays as described by Shokat et al., “A membrane capture assay for lipid kinase activity.” Nat. Protoc. […] Selected compounds of Table 1 and 2 were prepared and tested for inhibition activity in a variety of kinase assays.

Chain of PI4K-IIIβ (Q9UBF8 whole entry): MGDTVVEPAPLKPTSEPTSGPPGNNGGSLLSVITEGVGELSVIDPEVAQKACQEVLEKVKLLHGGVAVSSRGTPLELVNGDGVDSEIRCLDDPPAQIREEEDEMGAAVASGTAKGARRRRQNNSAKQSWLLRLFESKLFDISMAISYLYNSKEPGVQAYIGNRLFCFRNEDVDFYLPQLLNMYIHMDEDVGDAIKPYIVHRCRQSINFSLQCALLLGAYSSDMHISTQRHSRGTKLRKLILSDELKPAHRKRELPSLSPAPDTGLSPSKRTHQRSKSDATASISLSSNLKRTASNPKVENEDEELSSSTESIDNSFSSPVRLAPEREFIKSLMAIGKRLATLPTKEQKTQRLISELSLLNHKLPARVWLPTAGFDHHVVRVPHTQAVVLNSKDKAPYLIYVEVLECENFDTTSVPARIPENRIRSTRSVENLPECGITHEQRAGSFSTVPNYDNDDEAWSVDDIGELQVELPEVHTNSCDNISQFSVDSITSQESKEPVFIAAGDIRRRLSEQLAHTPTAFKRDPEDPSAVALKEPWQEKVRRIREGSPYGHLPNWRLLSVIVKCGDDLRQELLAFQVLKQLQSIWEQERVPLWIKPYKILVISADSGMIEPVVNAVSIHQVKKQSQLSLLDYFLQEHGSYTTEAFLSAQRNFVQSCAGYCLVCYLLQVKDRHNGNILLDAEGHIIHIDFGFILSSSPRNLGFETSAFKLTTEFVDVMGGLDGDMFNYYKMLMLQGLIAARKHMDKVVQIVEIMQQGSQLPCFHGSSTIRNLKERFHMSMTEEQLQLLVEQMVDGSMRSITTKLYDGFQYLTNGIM

In the case of `COc1ccc(-c2sc(NC(=O)CC3CCCC3)nc2C)cc1S(=O)(=O)Nc1ccc(O)cc1` [Compound S-1, 2-cyclopentyl-N-[5-[3-[(4-hydroxyphenyl)sulfamoyl]-4-methoxy-phenyl]-4-methyl-thiazol-2-yl]acetamide], the IC50 is reported as < 100 nM.
With `COc1ccc(-c2sc(NC(=O)C3CCCC3)nc2C)cc1S(=O)(=O)N[C@H]1CC[C@H](O)CC1` [Compound S-9, N-[5-[3-[(4-hydroxycyclohexyl)sulfamoyl]-4-methoxy-phenyl]-4-methyl-thiazol-2-yl]cyclopentanecarboxamide] the IC50 was < 100 nM.
In the case of `COc1ccc(-c2sc(NC(=O)C3CCCC3)nc2C)cc1S(=O)(=O)Nc1ccc(CO)cc1` [Compound S-41, N-[5-[3-[[4-(hydroxymethyl)phenyl]sulfamoyl]-4-methoxy-phenyl]-4-methyl-thiazol-2-yl]cyclopentanecarboxamide], the IC50 is reported as < 100 nM.
With `COc1ccc(-c2sc(NC(=O)Cc3ccccc3)nc2C)cc1S(=O)(=O)Nc1ccc(O)cc1` [Compound S-49, N-[5-[3-[(4-hydroxyphenyl)sulfamoyl]-4-methoxy-phenyl]-4-methyl-thiazol-2-yl]-2-phenyl-acetamide] the IC50 was < 100 nM.
`COc1ccc(-c2sc(NC3CCCCCC3)nc2C)cc1S(=O)(=O)Nc1c(C)cccc1C` [Compound S-98, 5-[2-(cycloheptylamino)-4-methyl-thiazol-5-yl]-N-(2,6-dimethylphenyl)-2-methoxy-benzenesulfonamide;2,2,2-trifluoroacetic acid] was tested, and the IC50 was < 100 nM.
For `COc1ccc(-c2sc(NCC3CCCCC3)nc2C)cc1S(=O)(=O)NC1CCNCC1` [Compound S-123, 5-[2-(cyclohexylmethylamino)-4-methyl-thiazol-5-yl]-2-methoxy-N-(4-piperidyl)benzenesulfonamide], the IC50 was < 100 nM.
Molecule `COc1ccc(-c2sc(NCC3CCCCC3)nc2C)cc1S(=O)(=O)NC1CC1` [Compound S-127, 5-[2-(cyclohexylmethylamino)-4-methyl-thiazol-5-yl]-N-cyclopropyl-2-methoxy-benzenesulfonamide] has an IC50 of 100 to 1000 nM.
`COc1ccc(-c2sc(NCC3CCCCC3)nc2C)cc1S(=O)(=O)NCC1CCCCC1` [Compound S-128, N-(cyclohexylmethyl)-5-[2-(cyclohexylmethylamino)-4-methyl-thiazol-5-yl]-2-methoxy-benzenesulfonamide] showed an IC50 of 100 to 1000 nM.
`COc1ccc(-c2sc(NC3CCCCC3)nc2C)cc1S(=O)(=O)NC1CCCC1` [Compound S-129, 5-[2-(cyclohexylamino)-4-methyl-thiazol-5-yl]-N-cyclopentyl-2-methoxy-benzenesulfonamide] gave an IC50 of 100 to 1000 nM.
In the case of `COc1ccc(-c2sc(NC3CCCCC3)nc2C)cc1S(=O)(=O)NC1CCCCCC1` [Compound S-131, N-cycloheptyl-5-[2-(cyclohexylamino)-4-methyl-thiazol-5-yl]-2-methoxy-benzenesulfonamide], the IC50 is reported as 100 to 1000 nM.
`COc1ccc(-c2sc(NCC3CCCCC3)nc2C)cc1S(=O)(=O)NC1CCN(C2CCCC2)CC1` [Compound S-133, 5-[2-(cyclohexylmethylamino)-4-methyl-thiazol-5-yl]-N-(1-cyclopentyl-4-piperidyl)-2-methoxy-benzenesulfonamide] was tested, and the IC50 was < 100 nM.
With `COc1ccc(-c2sc(NCC3CCCCC3)nc2C)cc1S(=O)(=O)NC1CCN(C(C)C)CC1` [Compound S-134, 5-[2-(cyclohexylmethylamino)-4-methyl-thiazol-5-yl]-N-(1-isopropyl-4-piperidyl)-2-methoxy-benzenesulfonamide] the IC50 was < 100 nM.
With `COc1ccc(-c2sc(NCC3CCCCC3)nc2C)cc1S(=O)(=O)NC1CCN(C2CC2)CC1` [Compound S-135, 5-[2-(cyclohexylmethylamino)-4-methyl-thiazol-5-yl]-N-(1-cyclopropyl-4-piperidyl)-2-methoxy-benzenesulfonamide] the IC50 was < 100 nM.
For `COc1ccc(-c2sc(NCC3CCCCC3)nc2C)cc1S(=O)(=O)NC1CCN(C2CCCCC2)CC1` [Compound S-136, 5-[2-(cyclohexylmethylamino)-4-methyl-thiazol-5-yl]-N-(1-cyclohexyl-4-piperidyl)-2-methoxy-benzenesulfonamide], the IC50 was < 100 nM.
With `COc1ccc(-c2sc(N[C@H](C)CC3CCCCC3)nc2C)cc1S(=O)(=O)NC1CCNCC1` [Compound S-145, 5-[2-[[(1R)-2-cyclohexyl-1-methyl-ethyl]amino]-4-methyl-thiazol-5-yl]-2-methoxy-N-(4-piperidyl)benzenesulfonamide] the IC50 was < 100 nM.
For `COc1ccc(-c2sc(N[C@H](C)C3CCCCC3)nc2C)cc1S(=O)(=O)NC1CCNCC1` [Compound S-147, 5-[2-[[(1R)-1-cyclohexylethyl]amino]-4-methyl-thiazol-5-yl]-2-methoxy-N-(4-piperidyl)benzenesulfonamide], the IC50 was < 100 nM.
In the case of `COc1ccc(-c2sc(N[C@H](C)C3CCCCC3)nc2C)cc1S(=O)(=O)NC1CCCNC1` (stereo partly drawn) [Compound S-148, 5-[2-[[(1R)-1-cyclohexylethyl]amino]-4-methyl-thiazol-5-yl]-2-methoxy-N-(3-piperidyl)benzenesulfonamide], the IC50 is reported as < 100 nM.
For `COc1ccc(-c2sc(NC(=O)CC3CCCC3)nc2C)cc1S(=O)(=O)N[C@H]1CC[C@H](O)CC1` [Compound S-151, 2-cyclopentyl-N-[5-[3-[(4-hydroxycyclohexyl)sulfamoyl]-4-methoxy-phenyl]-4-methyl-thiazol-2-yl]acetamide], the IC50 was < 100 nM.
In the case of `COc1ccc(-c2sc(NC(=O)CC3CCCC3)nc2C)cc1S(=O)(=O)NCCCCO` [Compound S-152], the IC50 is reported as < 100 nM.
In the case of `COc1ccc(-c2sc(NC(=O)CC3CCCC3)nc2C)cc1S(=O)(=O)N1CC[C@@H](O)C1` [Compound S-153, 2-cyclopentyl-N-[5-[3-[(3R)-3-hydroxypyrrolidin-1-yl]sulfonyl-4-methoxy-phenyl]-4-methyl-thiazol-2-yl]acetamide], the IC50 is reported as < 100 nM.
`COc1ccc(-c2sc(NC(=O)CCC3CCCC3)nc2C)cc1S(=O)(=O)N[C@H]1CC[C@H](O)CC1` [Compound S-156, 3-cyclopentyl-N-[5-[3-[(4-hydroxycyclohexyl)sulfamoyl]-4-methoxy-phenyl]-4-methyl-thiazol-2-yl]propanamide] was tested, and the IC50 was < 100 nM.
For `COc1ccc(-c2sc(NC(=O)CCC3CCCC3)nc2C)cc1S(=O)(=O)NC1CCNCC1` [Compound S-160, 3-cyclopentyl-N-[5-[4-methoxy-3-(4piperidylsulfamoyl)phenyl]-4-methyl-thiazol-2-yl]propanamide], the IC50 was < 100 nM.
For `COc1ccc(-c2sc(NC3CCCCC3)nc2C)cc1S(=O)(=O)N[C@H]1CC[C@H](O)CC1` [Compound S-166, 5-[2-(cyclohexylamino)-4-methyl-thiazol-5-yl]-N-(4-hydroxycyclohexyl)-2-methoxy-benzenesulfonamide], the IC50 was < 100 nM.
For `COc1ccc(-c2sc(NC3CCCCC3)nc2C)cc1S(=O)(=O)N[C@H]1CC[C@@H](O)CC1` [Compound S-167, 5-[2-(cyclohexylamino)-4-methyl-thiazol-5-yl]-N-(4-hydroxycyclohexyl)-2-methoxy-benzenesulfonamide], the IC50 was < 100 nM.
`COc1ccc(-c2sc(NC(=O)CC3CCOCC3)nc2C)cc1S(=O)(=O)Nc1cc(C)cc(O)c1` [Compound S-169, N-[5-[3-[(3-hydroxy-5-methyl-phenyl)sulfamoyl]-4-methoxy-phenyl]-4-methyl-thiazol-2-yl]-2-tetrahydropyran-4-yl-acetamide] was tested, and the IC50 was < 100 nM.
`COc1ccc(-c2sc(NC(=O)CC3CCOCC3)nc2C)cc1S(=O)(=O)Nc1ccc(F)cc1` [Compound S-170, N-[5-[3-[(4-fluorophenyl)sulfamoyl]-4-methoxy-phenyl]-4-methyl-thiazol-2-yl]-2-tetrahydropyran-4-yl-acetamide] was tested, and the IC50 was < 100 nM.
For `COc1ccc(-c2sc(NC(=O)CC3CCCC3)nc2C)cc1S(=O)(=O)NC1CCCNC1` (stereo not drawn) [Compound S-173, 2-cyclopentyl-N-[5-[4-methoxy-3-(3piperidylsulfamoyl)phenyl]-4-methyl-thiazol-2-yl]acetamide;2,2,2-trifluoroacetic acid], the IC50 was < 100 nM.
For `COc1ccc(-c2sc(N[C@@H](C)C3CCCCC3)nc2C)cc1S(=O)(=O)N[C@H]1CC[C@H](O)CC1` [Compound S-183, 5-[2-[[(1S)-1-cyclohexylethyl]amino]-4-methyl-thiazol-5-yl]-N-(4-hydroxycyclohexyl)-2-methoxy-benzenesulfonamide], the IC50 was < 100 nM.
`Cc1ccc(-c2sc(NC(=O)CC3CCCC3)nc2C)cc1S(=O)(=O)NC1CCNCC1` [Compound S-188, 2-cyclopentyl-N-[4-methyl-5-[4-methyl-3-(4-piperidylsulfamoyl)phenyl]thiazol-2-yl]acetamide] was tested, and the IC50 was < 100 nM.
`Cc1ccc(-c2sc(NC(=O)CC3CCCC3)nc2C)cc1S(=O)(=O)NC1CCCNC1` (stereo not drawn) [Compound S-189, 2-cyclopentyl-N-[4-methyl-5-[4-methyl-3-(3-piperidylsulfamoyl)phenyl]thiazol-2-yl]acetamide] was tested, and the IC50 was < 100 nM.
With `COc1ccc(-c2sc(N[C@H](C)C3CCCCC3)nc2C)cc1S(=O)(=O)N[C@H]1CC[C@H](O)CC1` [Compound S-193, 5-[2-[[(1R)-1-cyclohexylethyl]amino]-4-methyl-thiazol-5-yl]-N-(4-hydroxycyclohexyl)-2-methoxy-benzenesulfonamide] the IC50 was < 100 nM.
In the case of `COc1ccc(-c2sc(N[C@H](C)C3CCCCC3)nc2C)cc1S(=O)(=O)N[C@@H]1CCNC1` [Compound S-197, 5-[2-[[(1R)-1-cyclohexylethyl]amino]-4-methyl-thiazol-5-yl]-2-methoxy-N-[(3R)-pyrrolidin-3-yl]benzenesulfonamide], the IC50 is reported as < 100 nM.
Work on `COc1ccc(-c2sc(N[C@H](C)C3CCCCC3)nc2C)cc1S(=O)(=O)N[C@H]1CC[C@@H](O)CC1` [Compound S-198, 5-[2-[[(1R)-1-cyclohexylethyl]amino]-4-methyl-thiazol-5-yl]-N-(4-hydroxycyclohexyl)-2-methoxy-benzenesulfonamide] yielded an IC50 of 100 to 1000 nM.
